Data taken from patent US20250263404A1, “AMINOPYRIDINES AS ACTIVATORS OF PI3 KINASE” (UCL Business Ltd, priority 2021, published 2025).

Assays:
Assay type in all cases: biochemical
[1] = target: T1, PI3Kδ (Homo sapiens, UniProt O00329); assay: ADP-Glo in vitro lipid kinase assay, PI3Kδ
T1 construct: Full-length p110β/p85α and p110δ/p85α were cloned and expressed in a similar manner; Strep-tag followed by TEV protease site (N, cleaved yes); made in house; host or cells: Spodoptera frugiperda Sf9 (plasmids OP833 and OP809)
T1 sequence (O00329 whole entry, species assumed): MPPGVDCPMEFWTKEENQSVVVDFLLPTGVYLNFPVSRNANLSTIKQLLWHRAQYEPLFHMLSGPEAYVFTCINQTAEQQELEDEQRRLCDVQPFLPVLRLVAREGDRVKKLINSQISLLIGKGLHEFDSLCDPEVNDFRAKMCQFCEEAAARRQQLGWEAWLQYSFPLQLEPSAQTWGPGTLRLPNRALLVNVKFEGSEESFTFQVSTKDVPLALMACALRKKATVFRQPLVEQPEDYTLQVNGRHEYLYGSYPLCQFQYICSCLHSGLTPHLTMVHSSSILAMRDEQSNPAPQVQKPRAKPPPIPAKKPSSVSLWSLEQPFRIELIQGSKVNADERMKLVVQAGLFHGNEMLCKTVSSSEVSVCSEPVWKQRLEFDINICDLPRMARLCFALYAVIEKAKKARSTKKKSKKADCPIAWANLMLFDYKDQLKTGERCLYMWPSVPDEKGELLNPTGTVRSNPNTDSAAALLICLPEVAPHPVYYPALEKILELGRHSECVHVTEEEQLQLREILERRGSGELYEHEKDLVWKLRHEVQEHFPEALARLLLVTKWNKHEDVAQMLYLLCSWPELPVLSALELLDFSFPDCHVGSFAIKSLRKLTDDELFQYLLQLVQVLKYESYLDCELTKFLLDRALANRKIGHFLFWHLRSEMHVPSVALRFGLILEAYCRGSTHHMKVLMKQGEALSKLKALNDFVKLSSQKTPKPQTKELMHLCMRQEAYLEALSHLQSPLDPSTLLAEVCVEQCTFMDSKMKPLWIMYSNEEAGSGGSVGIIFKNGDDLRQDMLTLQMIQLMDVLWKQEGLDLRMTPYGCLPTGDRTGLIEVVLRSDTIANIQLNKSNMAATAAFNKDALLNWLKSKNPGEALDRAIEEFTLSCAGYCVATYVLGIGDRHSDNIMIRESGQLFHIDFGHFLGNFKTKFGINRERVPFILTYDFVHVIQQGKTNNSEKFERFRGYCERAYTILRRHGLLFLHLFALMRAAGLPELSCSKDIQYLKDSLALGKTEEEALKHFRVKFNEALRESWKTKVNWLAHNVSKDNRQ
T1 sequence (P27986 whole entry partner, species assumed): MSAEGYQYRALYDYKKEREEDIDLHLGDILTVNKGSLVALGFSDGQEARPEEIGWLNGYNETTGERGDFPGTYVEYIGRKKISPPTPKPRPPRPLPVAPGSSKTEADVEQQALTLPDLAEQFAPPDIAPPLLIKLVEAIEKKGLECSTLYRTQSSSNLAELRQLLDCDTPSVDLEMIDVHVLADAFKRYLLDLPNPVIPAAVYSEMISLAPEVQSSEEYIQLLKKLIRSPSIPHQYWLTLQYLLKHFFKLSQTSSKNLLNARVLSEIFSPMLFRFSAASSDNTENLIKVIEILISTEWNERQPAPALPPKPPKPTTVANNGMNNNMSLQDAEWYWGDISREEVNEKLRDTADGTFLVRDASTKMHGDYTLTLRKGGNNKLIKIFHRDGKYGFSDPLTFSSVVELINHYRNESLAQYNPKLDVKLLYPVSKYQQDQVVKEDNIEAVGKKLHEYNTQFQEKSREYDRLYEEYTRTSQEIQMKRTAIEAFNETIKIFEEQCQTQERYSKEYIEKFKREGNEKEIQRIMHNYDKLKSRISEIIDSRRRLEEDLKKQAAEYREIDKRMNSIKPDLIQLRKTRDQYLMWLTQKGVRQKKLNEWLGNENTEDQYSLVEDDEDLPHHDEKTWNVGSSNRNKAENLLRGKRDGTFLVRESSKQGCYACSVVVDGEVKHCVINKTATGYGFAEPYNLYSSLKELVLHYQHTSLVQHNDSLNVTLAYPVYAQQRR
Experimental: The effect of 1938 on the in vitro lipid kinase activity of p85α in complex with p110α, p110β or p110δ (further referred to as PI3Kα, PI3Kβ and PI3Kδ) was tested. As a positive control, a bis-phosphorylated phosphopeptide (a PDGF-receptor-derived peptide phosphorylated on Tyr-740 and Tyr-751, hereafter referred to as pY peptide) was used to mimic engagement of the p85α SH2 domains with tyrosine-phosphorylated peptides in membrane-bound receptors and adaptor proteins, known to activate the PI3Kα complex.
Kinase reactions were performed with ADP-Glo kinase assay kit (Promega Corporation). The enzyme, substrate and compounds were diluted in reaction buffer (20 mM HEPES, 50 mM NaCl, 50 mM KCl, 3 mM MgCl2, 1 mM EGTA, 1 mM TCEP, pH 7.4). Final concentrations of PI3Kα and PI3Kδ used were 25 nM and 50 nM for PI3Kβ. […]
For compound profiling, the reaction mixture contained 2 μl PI3K enzyme, 2 μl compound and/or pY and 2 μl of liposome substrate mixed with ATP. […] Luminescence was read using a Sense (Hidex) plate reader. […]
For characterisation of the effects of 1938 on in vitro PI3K enzymology, all reactions were performed at room temperature with 384 white-polystyrene plates (Corning #3574). […] For enzyme kinetic calculations, data was expressed as velocity (pmol of ADP generated/sec). […]

[2] = target: T2, N345K mutant of p110α (Homo sapiens, UniProt P42336, N345K); assay: ADP-Glo kinase assay, oncogenic mutant N345K; conditions: compared with pY
T2 construct: Full-length p110α was expressed in a complex with full-length p85α (for biochemistry and HDX-MS); 6xHis followed by TEV protease site (N); made in house; host or cells: Spodoptera frugiperda Sf9 (plasmid OP661)
T2 sequence (P42336 whole entry N345K): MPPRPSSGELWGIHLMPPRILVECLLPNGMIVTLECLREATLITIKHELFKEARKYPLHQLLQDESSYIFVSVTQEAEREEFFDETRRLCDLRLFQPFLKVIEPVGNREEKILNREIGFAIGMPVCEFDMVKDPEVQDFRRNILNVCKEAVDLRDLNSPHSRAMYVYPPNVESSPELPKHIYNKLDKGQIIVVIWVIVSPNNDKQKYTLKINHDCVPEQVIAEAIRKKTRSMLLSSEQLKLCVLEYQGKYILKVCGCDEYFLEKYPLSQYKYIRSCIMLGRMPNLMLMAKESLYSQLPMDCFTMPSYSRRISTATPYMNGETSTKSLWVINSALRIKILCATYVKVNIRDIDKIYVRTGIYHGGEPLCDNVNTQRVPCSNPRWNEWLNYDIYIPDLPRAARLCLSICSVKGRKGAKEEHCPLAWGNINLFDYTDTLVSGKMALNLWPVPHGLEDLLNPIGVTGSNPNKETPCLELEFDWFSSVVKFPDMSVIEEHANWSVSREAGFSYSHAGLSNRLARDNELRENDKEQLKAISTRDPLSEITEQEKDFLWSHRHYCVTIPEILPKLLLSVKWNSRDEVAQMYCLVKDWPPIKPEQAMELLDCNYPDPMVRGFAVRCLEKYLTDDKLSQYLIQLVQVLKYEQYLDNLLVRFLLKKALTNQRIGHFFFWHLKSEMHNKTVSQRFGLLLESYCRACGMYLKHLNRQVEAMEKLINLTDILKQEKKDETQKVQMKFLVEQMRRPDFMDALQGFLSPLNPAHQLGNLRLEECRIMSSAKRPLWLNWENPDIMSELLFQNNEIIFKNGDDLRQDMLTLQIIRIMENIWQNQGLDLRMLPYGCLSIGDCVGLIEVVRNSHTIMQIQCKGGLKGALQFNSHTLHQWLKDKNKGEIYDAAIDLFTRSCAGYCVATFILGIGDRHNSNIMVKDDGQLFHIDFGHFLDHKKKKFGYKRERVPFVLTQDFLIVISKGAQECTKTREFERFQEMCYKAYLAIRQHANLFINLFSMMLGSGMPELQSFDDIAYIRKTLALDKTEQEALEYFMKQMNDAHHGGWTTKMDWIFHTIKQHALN
T2 sequence (P27986 whole entry partner): as the sequence (P27986 whole entry partner, species assumed) above
Experimental: Co-stimulation of 1938 with pY led to an additive activatory effect for G106V, but not for the N345K and E545K mutants (FIG. 1f/FIG. 22f).
Kinase reactions were performed with ADP-Glo kinase assay kit (Promega Corporation). The enzyme, substrate and compounds were diluted in reaction buffer (20 mM HEPES, 50 mM NaCl, 50 mM KCl, 3 mM MgCl2, 1 mM EGTA, 1 mM TCEP, pH 7.4). Final concentrations of PI3Kα and PI3Kδ used were 25 nM and 50 nM for PI3Kβ. Liposomes (5% brain PI(4,5)P2, 20% brain phosphatidylserine, 45% brain phosphatidylethanolamine, 15% brain phosphatidylcholine, 10% cholesterol, 5% sphingomyelin (Avanti Polar Lipids)) were used at a final concentration of 1 mg/ml. The pY sequence is ESDGG(pY)[…](pY)[…].
For characterisation of the effects of 1938 on in vitro PI3K enzymology, all reactions were performed at room temperature with 384 white-polystyrene plates (Corning #3574). The final DMSO concentration in the assay was between 0.5%-1.8%. The reaction mixture contained 2 μl PI3K enzyme, 2 μl compound and/or pY and 2 μl of liposome substrate mixed with ATP. ATP was used at a final concentration of 200 μM, unless otherwise stated. The enzyme and compounds were pre-incubated for 10 min prior to addition of substrate. […] For enzyme kinetic calculations, data was expressed as velocity (pmol of ADP generated/sec). […]

[3] = test system: mutant PI3Kα (D603K, D603A, 603DCN_AAA605, D603A/F1016S, L1006R, F1016S, L1006R/F1016S); assay: Activation of binding-pocket mutants of PI3Kα; conditions: all mutants activatable by pY
Description: The inventors then performed mutagenesis in attempt to generate 1938-resistant mutants. Based on the crystal structure and SAR data, we made the following mutants: D603K, D603A, 603DCN_AAA605 triple mutant, D603A/F1016S double mutant, L1006R, F1016S, and the L1006R/F1016S double mutant.

**Q.** What does the source list for `CCN1CCN(c2ccc(Nc3cc(Nc4cccc5c4N(C(C)=O)CC5)ccn3)cc2)CC1` [Example 1938]?
**A.** effect on in vitro lipid kinase activity of PI3Kδ [1]: not PI3Kβ or PI3Kδ; activation of N345K mutant [2]: levels comparable with stimulation with pY; activation of pocket mutants by 1938 [3]: resistant to activation by 1938
